For data set [1] the following is noted: cited from earlier work.
The conditions of data set [2]: in vivo; cited from earlier work.
Data set [3] concerns the target T1, recombinant tau oligomers (TauO) (Homo sapiens, UniProt P10636).
T1 construct: made in house
Kind of data set: Atomic force microscopy of recombinant tau oligomers after compound treatment. Conditions: 5 μM of curcumin derivatives. Here is the method:
Tau oligomers were characterized by AFM as previously described (Lasagna-Reeves, (2010)0. Briefly, samples were prepared by adding 10 μl tau oligomers in the absence and presence of AC on freshly-cleaved mica and were allowed to adsorb to the surface. Mica were then washed three times with distilled water to remove unbound protein and impurities followed by air-drying. Samples were then imaged with Multimode 8 AFM machine (Veeco, CA) using a non-contact tapping method (ScanAsyst-Air).
(§1) Compounds were dissolved in ETOH 75%/DMSO (5:1) at a final concentration of 5 mM and diluted in 1× PBS or ddH2O for incubation or toxicity assay (final concentration 5 μM). Tau oligomers in the presence of the small molecules and controls were incubated on an orbital shaker, without stirring, for 16 hours under oligomerization conditions as previously described (Lo Cascio and Kayed 2018).
(§2) Tau oligomers were characterized by AFM as previously described (Lasagna-Reeves, Castillo-Carranza et al. 2010). Briefly, samples were prepared by adding 10 μl tau oligomers in the absence or presence of AC on freshly-cleaved mica and were allowed to adsorb to the surface. Mica were then washed three times with distilled water to remove unbound protein and impurities followed by air-drying. Samples were then imaged with Multimode 8 AFM machine (Veeco, CA) using a non-contact tapping method (ScanAsyst-Air).

The test system of data set [4] is primary cortical neurons. Briefly: MTT viability of primary cortical neurons exposed to Aβ oligomers pre-incubated with compound. It counts as cell-based, Htau mice. Conditions: 0.5 μM Aβ oligomers, 5 μM curcumin derivatives. Here is the method:
Aβ oligomers (AβO) were prepared as previously described (Lasagna-Reeves, Castillo-Carranza et al. 2010) by dissolving 0.3 mg of Aβ pellet in 200 μL of hexafluoroisopropanol (HFIP) and incubating for 10-20 min at room temperature. The resulting solution was added to 700 μL of ddH2O in a siliconized Eppendorf tube with holes placed on top of the cap to allow the slow evaporation of HFIP. The samples were then stirred at 500 rpm using a Teflon-coated micro stir bar for 48 hours at room temperature in the fume hood.
Compounds were dissolved in ETOH 75%/DMSO (5:1) at a final concentration of 5 mM and diluted in 1× PBS or ddH2O for incubation or toxicity assay (final concentration 5 μM). Aβ oligomers in the presence of the small molecules and controls were incubated on an orbital shaker, without stirring, for 16 hours under oligomerization conditions as previously described (Lo Cascio and Kayed 2018).
(§3) Human neuroblastoma SH-SY5Y cells were maintained in Dulbecco's modified Eagle's medium (DMEM) and grown to confluence in 96-well plates. […] Cells viability was corrected by the vehicle background. All measurements were performed in triplicate. The cytotoxic effect was determined using 3-(4,5-dimethylthiazol-2-yl)-2,5-diphenyltetrazolium bromide (MTT) assay for assessing cell viability following manufacturer's instructions. Optical density (OD) was measured at 490 nm with POLARstar OMEGA plate reader (BMG Labtechnologies). Cell viability was calculated as the percentage of the OD value of treated cells compared with untreated controls, according to the following equation: Viability=(OD SAMPLE/OD CONTROL)×100. Statistical analysis was based on one-way analysis of variance (ANOVA), performed using GraphPad Prism 6.01.
(§4) Primary cortical neurons from transgenic mice expressing human full-length tau were prepared and maintained as described previously (Beaudoin, Lee et al. 2012). Briefly, cortical neurons were isolated from embryos at embryonic day 16-18 using Accutase solution (Sigma). Dissociated neurons were plated at a density of […] in 96-well plates containing high glucose Dulbecco's Modified Eagle Medium (DMEM, Corning) supplemented with 2% B27 (Gibco), 10,000 units/mL penicillin, 10,000 μg/mL streptomycin , and 25 μg/mL Amphotericin B (Gibco). After 2 hours, plating medium was removed from cells and replaced with Neurobasal medium (Gibco) plus 2% B27, […] (Hyclone), 10,000 units/mL, 10,000 μg/mL streptomycin, and 25 μg/mL Amphotericin B supplement. Cells were grown for 10-12 days in vitro before experiments and 50% of media changes were performed every 3 days. […] The MTT viability assay was performed as previously described (Cell Toxicity Assay—MTT).

The subject of data set [5] is primary cortical neurons. Briefly: MTT viability of primary cortical neurons exposed to TauO pre-incubated with compound. It counts as cell-based, Htau mice. Particulars: 0.5 μM tau oligomers, 5 μM curcumin derivatives, 2 hours. Here is the method:
as §1, §3, §4

The test system of data set [6] is primary cortical neurons. Kind of data set: MTT viability of primary cortical neurons exposed to PSP BDTOs with and without compound. It counts as cell-based, Htau mice. Conditions: 0.5 μM BDTOs, CL3 final concentration 5 μM. Here is the method: as §3
(§5) Compounds were dissolved in ETOH 75%/DMSO (5:1) at a final concentration of 5 mM and diluted in 1× PBS or ddH2O for incubation or toxicity assay (final concentration 5 μM). Tau oligomers in the presence of the small molecules and controls were incubated on an orbital shaker, without stirring, for 16 hours under oligomerization conditions.
(§6) Primary cortical neurons from transgenic mice expressing human full-length tau were prepared and maintained as described previously (Beaudoin, Lee et al. 2012). […]

In data set [7] the test system is PSP BDTOs. Briefly: Atomic force microscopy of PSP BDTOs with and without compound. Conditions: with CL3. Here is the method:
as §2, §5
(§7) Immunoprecipitated tau oligomers were characterized using various biochemical methods as previously described (Lasagna-Reeves 2012, Gerson, Castillo-Carranza et al. 2016). AFM was performed to visualize the morphologies of oligomeric assemblies of isolated proteins. Isolated oligomers (5 μL) were injected into an LC-6AD Shimadzu HPLC system fitted with a TSK-GEL G3000 SWXL (30 cm×7.8 mm) column, Supelco-808541 to determine the size of the isolated oligomers. PBS (pH 7.4) was used as the mobile phase with a flow rate of 0.5 mL/min. […]

For data set [8], the system named is AD BDTOs. Briefly: Atomic force microscopy of AD BDTOs with and without compound. Particulars: with CL3. Here is the method:
as §2, §5, §7

The subject of data set [9] is primary cortical neurons. Kind of data set: MTT viability of primary cortical neurons exposed to AD BDTOs with and without compound. Conditions: 0.5 μM BDTOs, CL3 final concentration 5 μM. It is filed as cell-based, Htau mice. The protocol: as §3, §5, §6
For data set [10], the system named is primary cortical neurons. Kind of data set: BDTOs with and without CL3 taken up by primary cortical neurons, Western blot of cytoplasmic fraction. It counts as cell-based. Conditions: 0.5 μM DLB, AD and PSP BDTOs, 5 μM CL3, 24 hrs. The protocol: FIG. 15. Disease-relevant brain-derived tau oligomers with and without CL3 taken up by primary cortical neurons. Primary cortical neurons were exposed to 0.5 μM DLB, AD and PSP BDTOs in the presence and absence of 5 μM CL3 for 24 hrs. Tau levels are evaluated in the cytoplasmic fraction using the generic tau antibody, Total Tau. […] PSP show to more efficiently decrease monomeric tau in the cytoplasmic fraction as compared to DLB and AD. […] Data were compared by one-way analysis of variance (ANOVA) followed by Dunnett's multiple comparison test: Ctrl vs DLB, DLB+CL3, AD, AD+CL3, PSP, PSP+CL3: **p<0.01; ***p<0.001; ****p<0.0001. Bars and error bars represent the mean and standard deviation.

“Also recorded” adds a separate entry of the source.

T1 sequence (P10636 1-441 isoform P10636-8): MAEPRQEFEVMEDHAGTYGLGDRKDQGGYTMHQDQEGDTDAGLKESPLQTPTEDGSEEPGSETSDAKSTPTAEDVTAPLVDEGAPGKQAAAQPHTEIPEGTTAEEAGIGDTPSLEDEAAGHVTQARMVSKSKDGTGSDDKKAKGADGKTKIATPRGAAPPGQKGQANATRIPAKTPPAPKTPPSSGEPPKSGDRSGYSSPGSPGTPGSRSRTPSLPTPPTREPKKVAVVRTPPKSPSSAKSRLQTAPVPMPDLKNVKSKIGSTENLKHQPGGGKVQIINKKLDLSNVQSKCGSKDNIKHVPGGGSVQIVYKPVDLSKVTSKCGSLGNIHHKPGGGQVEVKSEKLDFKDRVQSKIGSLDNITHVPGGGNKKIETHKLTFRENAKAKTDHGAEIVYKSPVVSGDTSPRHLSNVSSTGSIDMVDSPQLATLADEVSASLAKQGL

In the case of `COc1cc(/C=C/C(=O)COC(=O)/C=C/c2ccc(O)c(OC)c2)ccc1O` [Calebin-A], the “solubility in aqueous media” value in data set [1] is reported as “poor solubity in water”. Further, the bioavailability entry in data set [2] is “low bioavailabity”.

Turning to `O=C(/C=C/c1ccc(Cl)cc1)COC(=O)/C=C/c1ccc(Cl)cc1` [Cal7], the “morphology and aggregation state of TauO by AFM” value in data set [3] was “converting TauO into much larger aggregates”. For the same molecule, in data set [4], the “viability of neuronal culture exposed to AβO pre-incubated with compound” value (from here on “viability … to AβO pre-incubated with compound”) is reported as “no changes in cells viability as compared to AβO alone”. Moreover, the “viability of neuronal culture exposed to TauO pre-incubated with compound” value (“viability … to TauO pre-incubated with compound” below) in data set [5] is “significantly higher cells viability as compared to TauO alone”.

Regarding `COc1cc(/C=C/C(=O)OCC(=O)/C=C/c2ccc(OC)c(OC)c2)ccc1F` [Cal9], the “morphology and aggregation state of TauO by AFM” value in [3] is “converting TauO into much larger aggregates”. Besides, the “viability … to AβO pre-incubated with compound” value in data set [4] is reported as “no changes in cells viability as compared to AβO alone”. The “viability … to TauO pre-incubated with compound” value in data set [5] is “significantly higher cells viability as compared to TauO alone”.

For the molecule `O=C(/C=C/c1ccc(F)cc1)C(=O)/C=C/c1ccc(F)cc1` [CL3], the “PSP BDTOs-induced toxicity in primary neurons (cell viability)” value in [6] is “reduced PSP-derived tau oligomers toxicity; also recorded: able to rescue primary neurons from PSP BDTOs-induced toxicity; also recorded: modulates PSP BDTOs associated neurotoxicity”. In addition, the “morphology and aggregation state of TauO by AFM” value in data set [3] is “converting TauO into much larger aggregates”. Also, the “morphology and aggregation state of PSP BDTOs by AFM” value in [7] is “formation of larger tau aggregates”. Moreover, in data set [8], the “morphology and aggregation state of AD BDTOs by AFM” value is listed as “no morphological changes were observed”. Besides, the “AD BDTOs-induced toxicity in primary neurons (cell viability)” value in data set [9] was “not be able to modulate and neutralize AD BDTOs-induced toxicity; also recorded: no effect in preventing AD BDTOs-induced toxicity”. Further, the “effect of BDTO pretreatment on tau levels in cytoplasmic fraction of primary neurons” value in data set [10] is “differently modulate their aggregation states”. Also, the “viability … to AβO pre-incubated with compound” value in [4] is on record as “no changes in cells viability as compared to AβO alone”. Also, the “viability … to TauO pre-incubated with compound” value in data set [5] is “significantly higher cells viability as compared to TauO alone”.

For `CC(=O)/C=C/c1ccc(C)cc1` [HemiC9], the “morphology and aggregation state of TauO by AFM” value in data set [3] is recorded as “converting TauO into much larger aggregates”. The “viability … to AβO pre-incubated with compound” value in [4] is given as “no changes in cells viability as compared to AβO alone”. For the same molecule, the “viability … to TauO pre-incubated with compound” value in data set [5] is listed as “significantly higher cells viability as compared to TauO alone”.
